Results reported in patent publication US20240100053A1, “PHARMACEUTICAL COMPOSITION” (priority 2021, published 2024).

Columns and labels:
[1] = tested on: PK-1 cells; assay: Cell proliferation by ATP assay, FGFR4-high PK-1 cells; format: cell-based; details: PK-1 cells (high FGFR4); 250 nM, 500 nM, 1 μM or 2 μM; 72 hours; volume-dependent manner; FIG. 3A
Protocol: (§1) After 72 hours of incubation, the effect on cell proliferation was examined by ATP assay.

[2] = tested on: PK-45P cells; assay: Cell proliferation by ATP assay, FGFR4-low PK-45P cells; format: cell-based; details: PK-45P cells (low FGFR4); 250 nM to 2 μM; 72 hours; FIG. 3A
Protocol: as §1

[3] = tested on: PK-1 cells and PK-45P cells; assay: Cytotoxicity by FACS using annexin V and PI; format: cell-based; details: 2 μM, FIG. 3B
[4] = tested on: PK-1 cells and PK-45P cells; assay: Cell cycle by FACS; format: cell-based; details: after addition of BLU9931, FIG. 3C
[5] = tested on: ERK, AKT, and STAT3 downstream of FGF19/FGFR4 signaling; assay: Immunoblotting of ERK, AKT, STAT3 in PK-1 cells; format: cell-based; details: 2 μM, FIG. 4
[6] = tested on: ERK, AKT, and STAT3 downstream of FGF19/FGFR4 signaling; assay: Immunoblotting of ERK, AKT, STAT3 in PK-45P cells; format: cell-based; details: FIG. 4
[7] = tested on: PK-1 cells; assay: Cell invasion, Corning Matrigel Invasion Chamber; format: cell-based; details: 2 μM, 16 hours, FIG. 5
Protocol: 1×10^5 cells/500 μL of PK-1 cells were seeded on top of the insert.

[8] = tested on: PK-1 cells; assay: Cellular aging: morphology and SA-β-Gal staining; format: cell-based; details: 2 μM
Protocol: In this example, an aging of cells by BLU9931 was examined. […] This morphological change was considered to be due to cellular aging. The present inventors measured the activity of senescence-associated β-galactosidase (SA-β-Gal), a marker of cellular aging.
After staining, nuclear staining was performed with DAPI.

[9] = tested on: phosphorylation of H2A.X; assay: DNA damage by phosphorylation of H2A.X (immunofluorescence); format: cell-based; details: incubation time increased from 3 days to 7 days; FIG. 7
Protocol: BLU9931-treated cells were incubated with anti-γHA2.X mouse monoclonal antibody at 4° C. overnight. Cells were treated with Alexa-Fluor-conjugated secondary antibodies and nuclear staining was performed with DAPI.

[10] = tested on: FGFR1-3; details: general statement in the description, no test shown; cited from earlier work

For `C=CC(=O)Nc1cccc(C)c1Nc1ncc2cc(-c3c(Cl)c(OC)cc(OC)c3Cl)ccc2n1` [BLU9931], the cell proliferation [1] was “suppressed”, the cell proliferation [2] was “no effect” and the “apoptosis, necrosis, or cell damage observed in cells” value [3] was ≤ 2%. The cytotoxicity [3] was “no significant effects”, the “number of cells in S phase” value ([4]; 20.7% without) was 13.5% and the “number of cells in G0/G1 phase” value ([4]; 60.7% without) was 70.1%. The “expression of AKT” value [5] was “decreased”, the “expression of ERK” value [5] was “decreased” and the “expression of STAT3” value [5] was “decreased”. For the same compound, the “expression of AKT” value [6] was “not decreased”, the “expression of ERK” value [6] was “not decreased” and the “expression of STAT3” value [6] was “not decreased”. The cell invasion [7] was “inhibited”, the “number of SA-β-Gal positive cells compared to the control cells” value ([8]; FIG. 6) was “increased” and the “cell morphology compared to the control cells” value ([8]; PK-1 cells, 1 week, FIG. 6A) was “larger and flattened”. For the same compound, the “DNA damage of the cells” value [9] was “progressed” and the “inhibition of FGFR1-3” value [10] was “does not inhibit”.
